{
  "source": "patent EP4745153A1",
  "about": "“GLP-1, GIP AND GCG RECEPTOR […] USE THEREOF” (Jiangsu Hengrui Pharmaceuticals Co., Ltd., priority 2023, dated 2025)",
  "key": {"human GLP-1R": {"target": "T1, human GLP-1R (Homo sapiens, UniProt P43220)", "T1 construct": "expressed in transfected cells; host or cells: CHO-K1 clonal cell line", "T1 sequence (P43220 24-463)": "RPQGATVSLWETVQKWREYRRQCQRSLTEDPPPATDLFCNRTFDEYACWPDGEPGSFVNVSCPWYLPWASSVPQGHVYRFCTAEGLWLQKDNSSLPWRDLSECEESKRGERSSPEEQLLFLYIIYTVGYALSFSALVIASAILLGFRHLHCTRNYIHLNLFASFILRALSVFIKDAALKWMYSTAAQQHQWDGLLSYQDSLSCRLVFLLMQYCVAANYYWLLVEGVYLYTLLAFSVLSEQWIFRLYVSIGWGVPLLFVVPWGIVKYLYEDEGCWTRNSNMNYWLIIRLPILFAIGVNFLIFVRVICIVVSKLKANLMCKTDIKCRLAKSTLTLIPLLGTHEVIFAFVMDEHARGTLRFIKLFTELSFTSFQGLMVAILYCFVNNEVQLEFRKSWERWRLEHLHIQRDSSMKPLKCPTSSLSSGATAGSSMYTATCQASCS", "assay": "cAMP HTRF agonist activity assay in CHO-K1 cells expressing GLP-1R; further: 5% FBS, 0.1% Casein", "type": "cell-based", "settings": "read-out: Activity against human GLP-1R (EC50 nM)", "method": "(§1) Functional activity was determined in CHO-K1 clonal cell lines expressing GIPR, GLP-1R, and GCGR. […] Each recipient cell (5000 cells/well) was added to an SV 96-well plate (Cisbio, 66PL96025) and incubated with the prepared polypeptide at 37°Cfor 30 min. The resulting increase in intracellular cAMP was quantitatively measured using the cAMP-GS dynamic HTRF assay kit (Cisbio, 62AM4PEJ). Briefly, the intracellular cAMP levels were determined by adding cAMP-d2 conjugate in cell lysis buffer, followed by the antibody anti-cAMP-Eu cryptate (also in cell lysis buffer).\n(§2) Using the maximum response percentage vs. the added polypeptide concentration, the relative EC50 values were derived through nonlinear regression analysis and fitted to a four-parameter logarithmic equation. For specific data, refer to Tables 7-1 to 7-8 below. […]"}, "human GIPR": {"target": "T2, human GIPR (Homo sapiens, UniProt P48546)", "T2 construct": "expressed in transfected cells; host or cells: CHO-K1 clonal cell line", "T2 sequence (P48546 22-466)": "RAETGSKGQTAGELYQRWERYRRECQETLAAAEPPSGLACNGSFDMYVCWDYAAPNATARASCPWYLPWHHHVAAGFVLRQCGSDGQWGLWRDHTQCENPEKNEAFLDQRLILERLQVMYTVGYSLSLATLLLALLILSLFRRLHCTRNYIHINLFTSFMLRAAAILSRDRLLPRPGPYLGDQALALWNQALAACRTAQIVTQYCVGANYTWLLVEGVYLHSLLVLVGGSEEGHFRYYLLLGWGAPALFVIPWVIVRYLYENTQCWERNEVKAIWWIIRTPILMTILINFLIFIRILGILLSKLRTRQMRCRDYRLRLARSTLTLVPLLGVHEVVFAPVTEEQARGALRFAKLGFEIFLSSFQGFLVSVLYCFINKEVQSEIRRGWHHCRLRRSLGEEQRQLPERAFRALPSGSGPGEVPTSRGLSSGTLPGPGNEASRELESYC", "assay": "cAMP HTRF agonist activity assay in CHO-K1 cells expressing GIPR", "type": "cell-based", "settings": "read-out: Activity against human GIPR (EC50 nM)", "method": "as §1, §2"}, "[1]": {"assay": "Pharmacokinetics in mice after single intravenous injection", "parameters": "species or system C57 mice", "settings": "male, C57, mouse, in vivo, iv", "method": "Male C57 mice were used as test animals. The target compound was administered via a single intravenous injection, and the pharmacokinetic characteristics of the compound in C57 mice in vivo (plasma) were determined.\nMale C57 mice, weighing approximately 25g, aged 4-6 weeks. After preparing the polypeptide compound solution using 1×PBS dissolving solution, the compound was administered intravenously at a dose of 200 nmol/kg, where each compound was administered to 3 animals. Blood samples of 60 µL were collected at 5 min, 15 min, 0.5 h, 1 h, 2 h, 4 h, 6 h, 24 h, 48 h and 72 h after the infusion was completed and transferred to centrifuge tubes containing EDTA-K2 anticoagulant. Whole blood samples were centrifuged at 4000 g for 5 min at 4°C. Plasma was separated and plasma samples were frozen and stored at -80 °C.\nSample pretreatment method: 30 µL of plasma samples was taken, and 120 µL of 0.1% formic acid in methanol containing 1 ng/mL internal standard verapamil was added. The mixture was vortexed for 5 min, and centrifuged at 10000 rpm for 10 min at low temperature. 70 µL of supernatant was taken, and 70 µL of water was added and mixed well. Analysis was performed by LC-MS instrument.\nLC-MS analysis method: (1) chromatographic conditions: mobile phases A and B: 0.1% formic acid in water and 0.1% formic acid in acetonitrile, respectively; gradient elution mode; flow rate: 0.5 mL/min; injection volume: 10 µL; chromatographic column: nanomicro Unisil C18aq (4.6 mm × 150 mm, 5 µm); column temperature: 40°C. (2) Mass spectrometry conditions: For mass spectrometry, an electrospray ionization source (ESI), positive ion analysis mode, and multiple reaction monitoring (MRM) scanning mode were used.\nFor data processing, SCIEX OS (Version 2.1.6) software was used to quantify blood drug concentration data and PKSolver (Version 2.0) software was used to calculate pharmacokinetic parameters."}},
  "note": "Starred links: 1 amine or outer side, 2 acyl side, 3 side chain; linkers in the order of their positions; H or OH if unused. Non-standard residues stand in square brackets, D forms with d. Residues, ends and D or L forms follow the SMILES beside them. Groups on a side chain read outwards from the residue. *: point of attachment. C20 diacid = O=C(O)CCCCCCCCCCCCCCCCCCC(=O)*; γGlu = O=C(O)[C@H](CCC(=O)[*:2])N[*:1]; αMeL = CC(C)C[C@](C)(N)C(=O)O; AEEA = NCCOCCOCC(=O)O; Aib = CC(C)(N)C(=O)O; on Activity against human GIPR (EC50 nM): 5% FBS, 0.1% Casein",
  "data": [
    {"smiles": "CC[C@H](C)[C@H](NC(=O)[C@H](CO)NC(=O)[C@H](Cc1ccc(O)cc1)NC(=O)[C@H](CC(=O)O)NC(=O)[C@H](CO)NC(=O)[C@@H](NC(=O)[C@H](Cc1ccccc1)NC(=O)[C@@H](NC(=O)CNC(=O)[C@H](CCC(N)=O)NC(=O)C(C)(C)NC(=O)[C@@H](N)Cc1c[nH]cn1)[C@@H](C)O)[C@@H](C)O)C(=O)N[C@@H](CC(C)C)C(=O)N[C@@H](CC(C)C)C(=O)N[C@@H](CCC(=O)O)C(=O)N[C@@H](CCCCNC(=O)COCCOCCNC(=O)COCCOCCNC(=O)CC[C@H](NC(=O)CCCCCCCCCCCCCCCCCCC(=O)O)C(=O)O)C(=O)N[C@@H](CCCCN)C(=O)N[C@@H](C)C(=O)N[C@@H](C)C(=O)N[C@@H](CCC(N)=O)C(=O)N[C@@H](CCC(=O)O)C(=O)N[C@@H](Cc1ccccc1)C(=O)N[C@H](C(=O)N[C@@H](CCC(=O)O)C(=O)N[C@@H](Cc1c[nH]c2ccccc12)C(=O)N[C@@H](CC(C)C)C(=O)N[C@@H](CC(C)C)C(=O)N[C@@H](C)C(=O)NCC(=O)NCC(=O)N1CCC[C@H]1C(=O)N[C@@H](CO)C(=O)N[C@@H](CO)C(=O)NCC(=O)N[C@@H](C)C(=O)N1CCC[C@H]1C(=O)N1CCC[C@H]1C(=O)N1CCC[C@H]1C(=O)N[C@@H](CO)C(N)=O)C(C)C", "note": "[Compound 0154] (H-H[Aib]QGTFTSDYSILLEK([AEEA-AEEA-γGlu-C20 diacid])KAAQEFVEWLLAGGPSSGAPPPS-NH2)", "values": [
      {"measurement": "EC50", "setting": "human GLP-1R", "result": 0.033, "unit": "nM"}
    ]},
    {"smiles": "CC(C)C[C@H](NC(=O)[C@H](CC(C)C)NC(=O)[C@H](Cc1c[nH]c2ccccc12)NC(=O)[C@H](CCC(=O)O)NC(=O)[C@@H](NC(=O)[C@H](Cc1ccccc1)NC(=O)[C@H](CCC(=O)O)NC(=O)[C@H](CCC(N)=O)NC(=O)[C@H](C)NC(=O)[C@H](C)NC(=O)[C@H](CCCCN)NC(=O)[C@H](CCCCNC(=O)COCCOCCNC(=O)COCCOCCNC(=O)CC[C@H](NC(=O)CCCCCCCCCCCCCCCCCCC(=O)O)C(=O)O)NC(=O)[C@H](CCC(=O)O)NC(=O)[C@H](CC(C)C)NC(=O)C(C)(C)NC(=O)[C@H](CCCCN)NC(=O)[C@H](CO)NC(=O)[C@H](Cc1ccc(O)cc1)NC(=O)[C@H](CC(=O)O)NC(=O)[C@H](CO)NC(=O)[C@@H](NC(=O)[C@H](Cc1ccccc1)NC(=O)[C@@H](NC(=O)CNC(=O)[C@H](Cc1c[nH]cn1)NC(=O)C(C)(C)NC(=O)[C@@H](N)Cc1c[nH]cn1)[C@@H](C)O)[C@@H](C)O)C(C)C)C(=O)N[C@@H](C)C(=O)NCC(=O)NCC(=O)N1CCC[C@H]1C(=O)N[C@@H](CO)C(=O)N[C@@H](CO)C(=O)NCC(=O)N[C@@H](C)C(=O)N1CCC[C@H]1C(=O)N1CCC[C@H]1C(=O)N1CCC[C@H]1C(=O)N[C@@H](CO)C(N)=O", "note": "[Compound 0107]", "values": [
      {"measurement": "EC50", "setting": "human GLP-1R", "result": 0.016, "unit": "nM"}
    ]},
    {"smiles": "CC[C@H](C)[C@H](NC(=O)[C@H](CO)NC(=O)[C@H](CC(C)C)NC(=O)[C@H](CC(=O)O)NC(=O)[C@H](CO)NC(=O)[C@@H](NC(=O)[C@H](Cc1ccccc1)NC(=O)[C@@H](NC(=O)CNC(=O)[C@H](Cc1c[nH]cn1)NC(=O)C(C)(C)NC(=O)[C@@H](N)Cc1c[nH]cn1)[C@@H](C)O)[C@@H](C)O)C(=O)N[C@@H](CC(C)C)C(=O)N[C@@H](CC(C)C)C(=O)N[C@@H](CCC(=O)O)C(=O)N[C@@H](CCCCNC(=O)COCCOCCNC(=O)COCCOCCNC(=O)CC[C@H](NC(=O)CCCCCCCCCCCCCCCCCCC(=O)O)C(=O)O)C(=O)N[C@@H](CCC(N)=O)C(=O)N[C@@H](C)C(=O)N[C@@H](C)C(=O)NC1(C(=O)N[C@@H](CCC(=O)O)C(=O)N[C@@H](Cc2ccccc2)C(=O)N[C@H](C(=O)N[C@@H](CCC(=O)O)C(=O)N[C@@H](Cc2c[nH]c3ccccc23)C(=O)N[C@@H](CC(C)C)C(=O)N[C@@H](CC(C)C)C(=O)N[C@@H](C)C(=O)N[C@H](CCC(=O)O)C(=O)NCC(=O)N2CCC[C@H]2C(=O)N[C@@H](CO)C(=O)N[C@@H](CO)C(=O)NCC(=O)N[C@@H](C)C(=O)N2CCC[C@H]2C(=O)N2CCC[C@H]2C(=O)N2CCC[C@H]2C(=O)N[C@@H](CO)C(N)=O)C(C)C)CCC1", "note": "[Compound 0145]", "values": [
      {"measurement": "EC50", "setting": "human GIPR", "result": 0.003, "unit": "nM"},
      {"measurement": "clearance", "setting": "[1]", "result": 7.74, "unit": "mL/h/kg"},
      {"measurement": "half-life", "setting": "[1]", "result": 7.7, "unit": "h"}
    ]},
    {"smiles": "CC[C@H](C)[C@H](NC(=O)[C@H](CO)NC(=O)[C@H](CC(C)C)NC(=O)[C@H](CC(=O)O)NC(=O)[C@H](CO)NC(=O)[C@@H](NC(=O)[C@H](Cc1ccccc1)NC(=O)[C@@H](NC(=O)CNC(=O)[C@H](Cc1c[nH]cn1)NC(=O)C(C)(C)NC(=O)[C@@H](N)Cc1c[nH]cn1)[C@@H](C)O)[C@@H](C)O)C(=O)N[C@@](C)(CC(C)C)C(=O)N[C@@H](CC(C)C)C(=O)N[C@@H](CCC(=O)O)C(=O)N[C@@H](CCCCNC(=O)COCCOCCNC(=O)COCCOCCNC(=O)CC[C@H](NC(=O)CCCCCCCCCCCCCCCCCCC(=O)O)C(=O)O)C(=O)N[C@@H](CCCCN)C(=O)N[C@@H](C)C(=O)N[C@@H](C)C(=O)N[C@@H](CCC(N)=O)C(=O)N[C@@H](CCC(=O)O)C(=O)N[C@@H](Cc1ccccc1)C(=O)N[C@H](C(=O)N[C@@H](CCC(=O)O)C(=O)N[C@@H](Cc1c[nH]c2ccccc12)C(=O)N[C@@H](CC(C)C)C(=O)N[C@@H](CC(C)C)C(=O)N[C@@H](C)C(=O)N[C@H](CCC(=O)O)C(=O)NCC(=O)N1CCC[C@H]1C(=O)N[C@@H](CO)C(=O)N[C@@H](CO)C(=O)NCC(=O)N[C@@H](C)C(=O)N1CCC[C@H]1C(=O)N1CCC[C@H]1C(=O)N1CCC[C@H]1C(=O)N[C@@H](CO)C(N)=O)C(C)C", "note": "[Compound 0142] (H-H[Aib]HGTFTSDLSI[αMeL]LEK([AEEA-AEEA-γGlu-C20 diacid])KAAQEFVEWLLA[dE]GPSSGAPPPS-NH2)", "values": [
      {"measurement": "EC50", "setting": "human GIPR", "result": 0.007, "unit": "nM"},
      {"measurement": "clearance", "setting": "[1]", "result": 5.52, "unit": "mL/h/kg"},
      {"measurement": "half-life", "setting": "[1]", "result": 10.5, "unit": "h"}
    ]},
    {"smiles": "CC[C@H](C)[C@H](NC(=O)[C@H](CO)NC(=O)[C@H](Cc1ccc(O)cc1)NC(=O)[C@H](CC(=O)O)NC(=O)[C@H](CO)NC(=O)[C@@H](NC(=O)[C@H](Cc1ccccc1)NC(=O)[C@@H](NC(=O)CNC(=O)[C@H](Cc1c[nH]cn1)NC(=O)C(C)(C)NC(=O)[C@@H](N)Cc1c[nH]cn1)[C@@H](C)O)[C@@H](C)O)C(=O)N[C@@](C)(CC(C)C)C(=O)N[C@@H](CC(C)C)C(=O)N[C@@H](CCC(=O)O)C(=O)N[C@@H](CCCCNC(=O)COCCOCCNC(=O)COCCOCCNC(=O)CC[C@H](NC(=O)CCCCCCCCCCCCCCCCCCC(=O)O)C(=O)O)C(=O)N[C@@H](CCCCN)C(=O)N[C@@H](C)C(=O)N[C@@H](C)C(=O)N[C@@H](CCC(N)=O)C(=O)N[C@@H](CCC(=O)O)C(=O)N[C@@H](Cc1ccccc1)C(=O)N[C@H](C(=O)N[C@@H](CCC(=O)O)C(=O)N[C@@H](Cc1c[nH]c2ccccc12)C(=O)N[C@@H](CC(C)C)C(=O)N[C@@H](CC(C)C)C(=O)N[C@@H](C)C(=O)N[C@H](CCC(=O)O)C(=O)NCC(=O)N1CCC[C@H]1C(=O)N[C@@H](CO)C(=O)N[C@@H](CO)C(=O)NCC(=O)N[C@@H](C)C(=O)N1CCC[C@H]1C(=O)N1CCC[C@H]1C(=O)N1CCC[C@H]1C(=O)N[C@@H](CO)C(N)=O)C(C)C", "note": "[Compound 0139]", "values": [
      {"measurement": "EC50", "setting": "human GIPR", "result": 0.007, "unit": "nM"},
      {"measurement": "clearance", "setting": "[1]", "result": 4.86, "unit": "mL/h/kg"},
      {"measurement": "half-life", "setting": "[1]", "result": 11.9, "unit": "h"}
    ]}
  ]
}
